{
  "source": "paper PMC12603070",
  "about": "“A high-throughput screening approach to discover potential colorectal cancer chemotherapeutics: repurposing drugs to identify novel disruptors of 14-3-3 proteins” (Cell Death & Disease, 2025)",
  "biological_target": "T1, 14-3-3ζ-Rluc8:112-136F-mC complex (Homo sapiens, UniProt P63104)",
  "T1 construct": "expressed in transfected cells; host or cells: NIH-3T3 fibroblasts, bi-directional pBI-CMV1 plasmid",
  "T1 sequence (P63104 1-245)": "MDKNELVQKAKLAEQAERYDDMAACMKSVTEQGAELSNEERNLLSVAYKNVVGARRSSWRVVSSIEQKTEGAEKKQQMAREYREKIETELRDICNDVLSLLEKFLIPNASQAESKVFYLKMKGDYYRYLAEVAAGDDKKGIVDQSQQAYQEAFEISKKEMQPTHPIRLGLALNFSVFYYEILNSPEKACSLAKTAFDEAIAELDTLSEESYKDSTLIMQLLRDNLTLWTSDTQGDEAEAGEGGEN",
  "experiment": "Co-immunoprecipitation of 14-3-3ζ-Rluc8:112-136F-mC complex",
  "format": "cell-based",
  "details": "NIH-3T3 expressing BRET sensor, 20 μM, 3 h, vs DMSO",
  "procedure": "NIH-3T3 cells were plated in 10 cm culture dishes at a density of 550,000 cells per dish. Transfection was conducted 48 h post-seeding. At 48 h post-transfection, DMSO or FTY-720 (20 μM) was added to the culture media and incubated with cells expressing the BRET-sensor for 3 h. Cell lysates were collected using RIPA buffer (0.9% NaCl, 1% v/v triton X-100, 0.5% sodium deoxycholate, 0.1% SDS, and 0.6% tris base), supplemented with protease inhibitor cocktail (Sigma-Aldrich; #P8340). The protein concentration was determined using the Bradford assay. Equal amounts of protein (100 μg) were subjected to immunoprecipitation using 1 μg anti-GFP antibody per sample (Invitrogen; #A-11120) and protein A/G magnetic beads (Thermo Fisher Scientific, Massachusetts, USA; #80104G), according to the manufacturer’s instructions. Antibodies against GFP were used to precipitate mCitrine due to the high degree of sequence homology. Immunoprecipitated proteins were eluted by boiling the beads in 1 X Laemmli protein sample buffer (Bio-Rad, California, USA; #1610747) for 5 min. Eluted samples were resolved in 10% SDS-PAGE gels and transferred to PVDF membranes (Bio-Rad, California, USA; #10026933) using the Trans-Blot Turbo transfer system (Bio-Rad). […] Protein bands were detected using Clarity Max western ECL substrate. […]",
  "data": [
    {"smiles": "CCCCCCCCc1ccc(CCC(N)(CO)CO)cc1", "note": "[Fingolimod (FTY720), Fingolimod]", "values": [
      {"measurement": "Abundance of 14-3-3ζ-Rluc8 within the co-immunoprecipitated complex", "result": "reduced"}
    ]}
  ]
}
